This is an account of results in patent US10533010B2, “Substituted indole Mcl-1 inhibitors” (Vanderbilt University, priority 2014, dated 2020).

Molecules are shown by their SMILES.

A word on the Ki: it is a measure of affinity in units of concentration, obtained from inhibition or displacement.

For the first assay, the target named is recombinant Mcl-1 (residues 172-327) (Homo sapiens (Human), UniProt Q07820). The experiment in a line: Fluorescence polarization anisotropy competition assay (FITC-Bak or FITC-Bim BH3 peptide) with Mcl-1. The format is binding.
recombinant Mcl-1 (residues 172-327), sequence (Q07820 172-327): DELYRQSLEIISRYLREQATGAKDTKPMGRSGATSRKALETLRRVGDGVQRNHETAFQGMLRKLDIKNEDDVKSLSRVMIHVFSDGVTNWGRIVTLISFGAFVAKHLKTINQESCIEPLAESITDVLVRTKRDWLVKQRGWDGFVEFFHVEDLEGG
Details: not given
In general terms: Polarisation of emitted light reports the rotation of a fluorescent probe.
Turning to `Cc1cc(OCCCc2c(C(=O)NCc3ccc(C(=O)O)o3)[nH]c3ccccc23)cc(C)c1Cl` [I-57, 5-((3-(3-(4-chloro-3,5-dimethylphenoxy)propyl)-1H-indole-2-carboxamido)methyl)furan-2-carboxylic acid], the inhibitory constant (Ki) is 51 to 100 nM.
On to `COC(=O)CNC(=O)c1[nH]c2ccccc2c1CCCOc1cc(C)c(Cl)c(C)c1` [I-2, methyl (3-(3-(4-chloro-3,5-dimethylphenoxy)propyl)-1H-indole-2-carbonyl)glycinate], for which the Ki fell in the range of 1000 to 9990 nM.

Staying with this assay, now noted: Table 2; Ki bins given in nM; FITC-Bak or FITC-Bim peptide competition; Ki converted from IC50; read-out: Ki for Inhibition of Mcl-1.
For `Cc1cc(OCCCc2c3n(c4c(-c5c(C)nn(C)c5C)c(Cl)ccc24)C[C@H](C)N(Cc2ccc(C(=O)O)cc2)C3=O)cc(C)c1Cl` [I-139, (S)-4-((7-chloro-10-(3-(4-chloro-3,5-dimethylphenoxy)propyl)-3-methyl-1-oxo-6-(1,3,5-trimethyl-1H-pyrazol-4-yl)-3,4-dihydropyrazino[1,2-a]indol-2(1H)-yl)methyl)benzoic acid], the Ki is < 50 nM.
As for `Cc1cc(OCCCc2c3n(c4c(-c5c(C)nn(C)c5C)c(Cl)ccc24)CCCN(Cc2cc(C(=O)O)cc(-c4ccc(O)cc4)c2)C3=O)cc(C)c1Cl` [I-306, 5-((8-chloro-1-(3-(4-chloro-3,5-dimethylphenoxy)propyl)-1-oxo-7-(1,3,5-trimethyl-1H-pyrazol-4-yl)-4,5-dihydro-1H-[1,4]diazepino[1,2-a]indol-2(3H)-yl)methyl)-4′-hydroxy-[1,1′-biphenyl]-3-carboxylic acid], the Ki is < 50 nM.
As to `Cc1cc(OCCCc2c3n(c4c(-c5c(C)nn(C)c5C)c(Cl)ccc24)CCCN(c2cccc(C(=O)O)c2C)C3=O)cc(C)c1Cl` [I-96, 3-(8-chloro-11-(3-(4-chloro-3,5-dimethylphenoxy)propyl)-1-oxo-7-(1,3,5-trimethyl-1H-pyrazol-4-yl)-4,5-dihydro-1H-[1,4]diazepino[1,2-a]indol-2(3H)-yl)-2-methylbenzoic acid], the Ki is < 50 nM.
With `Cc1cc(OCCCc2c3n(c4c(-c5c(C)nn(C)c5C)c(Cl)ccc24)CCCN(c2cc(C(=O)O)cc4[nH]ccc24)C3=O)cc(C)c1Cl` [I-252, 4-(8-chloro-11-(3-(4-chloro-3,5-dimethylphenoxy)propyl)-1-oxo-7-(1,3,5-trimethyl-1H-pyrazol-4-yl)-4,5-dihydro-1H-[1,4]diazepino[1,2-a]indol-2(3H)-yl)-1H-indole-6-carboxylic acid], the Ki was < 50 nM.
`Cc1cc(OCCCc2c(C(=O)NCc3ccc(C(=O)N[C@@H](Cc4ccccc4)C(=O)O)o3)[nH]c3c(-c4c(C)nn(C)c4C)cccc23)cc(C)c1Cl` [I-271, (5-((3-(3-(4-chloro-3,5-dimethylphenoxy)propyl)-7-(1,3,5-trimethyl-1H-pyrazol-4-yl)-1H-indole-2-carboxamido)methyl)furan-2-carbonyl)-L-phenylalanine]: the Ki was < 50 nM.
The same measure, in the same setting: under `Cc1cc(OCCCc2c3n(c4c(-c5c(C)nn(C)c5C)c(Cl)ccc24)CCCN(c2cc(CN4CCN(C)CC4)cc(C(=O)O)c2)C3=O)cc(C)c1Cl` [I-228, 3-(8-chloro-11-(3-(4-chloro-3,5-dimethylphenoxy)propyl)-1-oxo-7-(1,3,5-trimethyl-1H-pyrazol-4-yl)-4,5-dihydro-1H-[1,4]diazepino[1,2-a]indol-2(3H)-yl)-5-((4-methylpiperazin-1-yl)methyl)benzoic acid] stands < 50 nM; under `Cc1cc(OCCCc2c3n(c4c(-c5c(C)nn(C)c5C)c(Cl)ccc24)[C@H](C)CN(c2cc(C(=O)O)cc4c2ccn4C)C3=O)cc(C)c1Cl` [I-170, (R)-4-(7-chloro-10-(3-(4-chloro-3,5-dimethylphenoxy)propyl)-4-methyl-1-oxo-6-(1,3,5-trimethyl-1H-pyrazol-4-yl)-3,4-dihydropyrazino[1,2-a]indol-2(1H)-yl)-1-methyl-1H-indole-6-carboxylic acid], < 50 nM.
As for `Cc1cc(OCCCc2c3n(c4c(-c5c(C)nn(C)c5C)c(Cl)ccc24)CCCN(c2cccc(C#N)c2)C3=O)cc(C)c1Cl` [I-353, 3-(8-chloro-11-(3-(4-chloro-3,5-dimethylphenoxy)propyl)-1-oxo-7-(1,3,5-trimethyl-1H-pyrazol-4-yl)-4,5-dihydro-1H-[1,4]diazepino[1,2-a]indol-2(3H)-yl)benzonitrile], the Ki was in the range of 51 to 100 nM.
Regarding `Cc1cc(OCCCc2c3n(c4c(-c5c(C)nn(C)c5C)c(Cl)ccc24)C(C)[C@@H](C)N(c2ccc(C(=O)O)c4ncccc24)C3=O)cc(C)c1Cl` (stereo partly drawn) [I-164, 5-((3R)-7-chloro-10-(3-(4-chloro-3,5-dimethylphenoxy)propyl)-3,4-dimethyl-1-oxo-6-(1,3,5-trimethyl-1H-pyrazol-4-yl)-3,4-dihydropyrazino[1,2-a]indol-2(1H)-yl)quinoline-8-carboxylic acid], the Ki lay within 51 to 100 nM.
On the same count and under the same terms, under `Cc1cc(OCCCc2c3n(c4c(-c5c(C)nn(C)c5C)c(Cl)ccc24)CCCN(c2scnc2C(=O)O)C3=O)cc(C)c1Cl` [I-350, 5-(8-chloro-11-(3-(4-chloro-3,5-dimethylphenoxy)propyl)-1-oxo-7-(1,3,5-trimethyl-1H-pyrazol-4-yl)-4,5-dihydro-1H-[1,4]diazepino[1,2-a]indol-2(3H)-yl)thiazole-4-carboxylic acid] stands < 50 nM; under `Cc1cc(N2CCCn3c(c(CCCOc4cc(C)c(Cl)c(C)c4)c4ccc(Cl)c(-c5c(C)nn(C)c5C)c43)C2=O)ccc1C(=O)O` [I-99, 4-(8-chloro-11-(3-(4-chloro-3,5-dimethylphenoxy)propyl)-1-oxo-7-(1,3,5-trimethyl-1H-pyrazol-4-yl)-4,5-dihydro-1H-[1,4]diazepino[1,2-a]indol-2(3H)-yl)-2-methylbenzoic acid], < 50 nM.
With `Cc1cc(OCCCc2c3n(c4c(-c5c(C)nn(C)c5C)c(Cl)ccc24)CCCN(c2cc(CN4CCOCC4)cc(C(=O)O)c2)C3=O)cc(C)c1Cl` [I-227, 3-(8-chloro-11-(3-(4-chloro-3,5-dimethylphenoxy)propyl)-1-oxo-7-(1,3,5-trimethyl-1H-pyrazol-4-yl)-4,5-dihydro-1H-[1,4]diazepino[1,2-a]indol-2(3H)-yl)-5-(morpholinomethyl)benzoic acid], the Ki was < 50 nM.
With `Cc1cc(OCCCc2c3n(c4c(-c5c(C)nn(C)c5C)c(Cl)ccc24)[C@H](C)CN(c2cc(C(=O)O)c4ccn(C)c4c2)C3=O)cc(C)c1Cl` [I-174, (R)-6-(7-chloro-10-(3-(4-chloro-3,5-dimethylphenoxy)propyl)-4-methyl-1-oxo-6-(1,3,5-trimethyl-1H-pyrazol-4-yl)-3,4-dihydropyrazino[1,2-a]indol-2(1H)-yl)-1-methyl-1H-indole-4-carboxylic acid], the Ki was < 50 nM.
On the same count and under the same terms, under `Cc1cc(OCCCc2c3n(c4c(-c5c(C)nn(C)c5C)c(Cl)ccc24)CCCN(Cc2ccc(C(=O)NS(=O)(=O)c4ccc(OCc5cccnc5)cc4)cc2)C3=O)cc(C)c1Cl` [I-310, 4-((8-chloro-11-(3-(4-chloro-3,5-dimethylphenoxy)propyl)-1-oxo-7-(1,3,5-trimethyl-1H-pyrazol-4-yl)-4,5-dihydro-1H-[1,4]diazepino[1,2-a]indol-2(3H)-yl)methyl)-N-((4-(pyridin-3-ylmethoxy)phenyl)sulfonyl)benzamide] stands < 50 nM; under `Cc1cc(OCCCc2c(C(=O)Nc3cccc(C(=O)O)c3)[nH]c3c(-c4cccnc4C)cccc23)cc(C)c1Cl` [I-36, 3-(3-(3-(4-chloro-3,5-dimethylphenoxy)propyl)-7-(2-methylpyridin-3-yl)-1H-indole-2-carboxamido)benzoic acid], < 50 nM; under `Cc1cc(OCCCc2c3n(c4c(-c5c(C)nn(C)c5C)c(Cl)ccc24)CCCN(c2nn(C)c4cc(C(=O)O)ccc24)C3=O)cc(C)c1Cl` [I-375, 3-(8-chloro-11-(3-(4-chloro-3,5-dimethylphenoxy)propyl)-1-oxo-7-(1,3,5-trimethyl-1H-pyrazol-4-yl)-4,5-dihydro-1H-[1,4]diazepino[1,2-a]indol-2(3H)-yl)-1-methyl-1H-indazole-6-carboxylic acid], < 50 nM.
For `Cc1cc(OCCCc2c(C(=O)NCc3cccc(C(=O)NS(=O)(=O)c4cccc(C#N)c4)c3)[nH]c3c(-c4c(C)nn(C)c4C)cccc23)cc(C)c1Cl` [I-30, 3-(3-(4-chloro-3,5-dimethylphenoxy)propyl)-N-(3-(((3-cyanophenyl)sulfonyl)carbamoyl)benzyl)-7-(1,3,5-trimethyl-1H-pyrazol-4-yl)-1H-indole-2-carboxamide], the Ki was < 50 nM.
In the case of `Cc1cc(OCCCc2c3n(c4c(-c5c(C)nn(C)c5C)c(Cl)ccc24)CCCN(c2cccc(-c4nn[nH]n4)c2)C3=O)cc(C)c1Cl` [I-354, 2-(3-(2H-tetrazol-5-yl)phenyl)-8-chloro-1-(3-(4-chloro-3,5-dimethylphenoxy)propyl)-7-(1,3,5-trimethyl-1H-pyrazol-4-yl)-2,3,4,5-tetrahydro-1H-[1,4]diazepino[1,2-a]indol-1-one], the Ki was < 50 nM.
As for `Cc1cc(OCCCc2c(C(=O)NCCC(=O)NS(=O)(=O)c3ccccc3[N+](=O)[O-])[nH]c3ccccc23)cc(C)c1Cl` [I-20, 3-(3-(4-chloro-3,5-dimethylphenoxy)propyl)-N-(3-((2-nitrophenyl)sulfonamido)-3-oxopropyl)-1H-indole-2-carboxamide], the Ki fell in the range of 101 to 299 nM.

Staying with this assay, now noted: Table 2; Ki bins given in μM; FITC-Bak or FITC-Bim peptide competition; Ki converted from IC50; read-out: Ki for Inhibition of Mcl-1.
As for `Cc1cc(OCCCc2c(C(=O)NCc3ccccc3)[nH]c3ccccc23)cc(C)c1Cl` [I-41, N-benzyl-3-(3-(4-chloro-3,5-dimethylphenoxy)propyl)-1H-indole-2-carboxamide], the Ki is 10000 to 50000 nM.
As for `CCOC(=O)c1ccc(CNC(=O)c2[nH]c3ccccc3c2CCCOc2cc(C)c(Cl)c(C)c2)o1` [I-56, ethyl 5-((3-(3-(4-chloro-3,5-dimethylphenoxy)propyl)-1H-indole-2-carboxamido)methyl)furan-2-carboxylate], the Ki fell in the range of 1000 to 9990 nM.
Take `CCOC(=O)c1ccc(N2CCN(C(=O)c3[nH]c4cc(Cl)ccc4c3CCCOc3cc(C)c(Cl)c(C)c3)CC2)cc1` [I-50, ethyl 4-(4-(6-chloro-3-(3-(4-chloro-3,5-dimethylphenoxy)propyl)-1H-indole-2-carbonyl)piperazin-1-yl)benzoate]: the Ki lay in the range of 10000 to 50000 nM.
